Bridge positions count the residues as written; N and C are the ends. Square brackets hold non-standard residues; d marks the D form. Peptide text beside a SMILES is read from it. * marks the point of attachment. ξ: configuration not given here. Phe(4-CONH2) = NC(=O)c1ccc(C[C@H](N)C(=O)O)cc1; Bip = N[C@@H](Cc1ccc(-c2ccccc2)cc1)C(=O)O; Ala(2-furyl) = N[C@@H](Cc1ccco1)C(=O)O; Phe(3-Me) = Cc1cccc(C[C@H](N)C(=O)O)c1; Val(3-OH) = CC(C)(O)[C@H](N)C(=O)O; 4Pal = N[C@@H](Cc1ccncc1)C(=O)O; Cha = N[C@@H](CC1CCCCC1)C(=O)O; Thr(3ξ) = CC(O)[C@H](N)C(=O)O; Carboxymethyl = O=C(O)C*; Orn = NCCC[C@H](N)C(=O)O; Aun = NCCCCCCCCCCC(=O)O; Dab = NCC[C@H](N)C(=O)O; AEEA = NCCOCCOCC(=O)O
Molecular target: T1, PD-1/PD-L1 interaction (PE-labeled human PD-L1-Ig binding to Jurkat cell line over-expressing human PD-1) (Homo sapiens, UniProt Q15116)
T1 construct: expressed in transfected cells; host or cells: Jurkat
T1 sequence (Q15116 25-288): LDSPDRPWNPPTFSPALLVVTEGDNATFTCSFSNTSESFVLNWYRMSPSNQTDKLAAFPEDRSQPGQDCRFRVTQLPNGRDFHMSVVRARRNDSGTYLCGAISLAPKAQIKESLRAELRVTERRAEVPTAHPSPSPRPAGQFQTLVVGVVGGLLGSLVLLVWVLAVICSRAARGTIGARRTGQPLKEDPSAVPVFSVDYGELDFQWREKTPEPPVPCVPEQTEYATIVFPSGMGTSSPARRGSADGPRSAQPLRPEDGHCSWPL
Assay: Jurkat-PD-1 Cell Binding High-Content Screening Assay (CBA)
Type: cell-based
Details: Jurkat cell line over-expressing human PD-1; PE-labeled PD-L1-Ig 20 nM final; read-out: Jurkat hPD1-PDL1 IC50
Procedure, shortened: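 Binding of fluorescent PD-L1-Ig (20 nM final) to Jurkat-PD-1 cells was measured by automated imaging after 1 h, following a 2 h compound pre-treatment at 37° C.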

Compound	IC50
Cc1cccc(C[C@@H]2NC(=O)[C@H](CC(=O)O)NC(=O)[C@H](Cc3ccc(OCC(=O)O)cc3)NC(=O)[C@H](Cc3ccncc3)NC(=O)CSC[C@@H](C(=O)N[C@@H](CCN)C(=O)NCCCCCCCCCCC(=O)O)NC(=O)[C@H](CO)NC(=O)[C@H](C(C)(C)O)NC(=O)[C@H](CC3CCCCC3)NC(=O)[C@H](CCN)NC(=O)[C@@H](CC(C)C)NC(=O)[C@H](CCCN)NC(=O)[C@H](Cc3ccc(O)cc3)NC(=O)[C@H](Cc3ccc(-c4ccccc4)cc3)NC(=O)[C@H](Cc3ccc(C(N)=O)cc3)NC2=O)c1 [Compound 3717] ({CH2CO}-[4Pal]Y(Carboxymethyl)D[Phe(3-Me)][Phe(4-CONH2)][Bip]Y[Orn][dL][Dab][Cha][Val(3-OH)]SC[Dab][Aun]-OH; thioether N-14)	0.005 µM
Cc1cccc(C[C@@H]2NC(=O)[C@H](CC(=O)O)NC(=O)[C@H](Cc3ccc(OCC(=O)O)cc3)NC(=O)[C@H](C(C)O)NC(=O)CSC[C@@H](C(=O)N[C@@H](CCN)C(=O)NCCCCCCCCCCC(=O)O)NC(=O)[C@H](CO)NC(=O)[C@H](C(C)(C)O)NC(=O)[C@H](CC3CCCCC3)NC(=O)[C@H](CCN)NC(=O)[C@@H](CC(C)C)NC(=O)[C@H](CCCN)NC(=O)[C@H](Cc3ccc(O)cc3)NC(=O)[C@H](Cc3ccc(-c4ccccc4)cc3)NC(=O)[C@H](Cc3ccc(C(N)=O)cc3)NC2=O)c1 (stereo partly drawn) [Compound 3718] ({CH2CO}-[Thr(3ξ)]Y(Carboxymethyl)D[Phe(3-Me)][Phe(4-CONH2)][Bip]Y[Orn][dL][Dab][Cha][Val(3-OH)]SC[Dab][Aun]-OH; thioether N-14)	0.0088 µM
Cc1cccc(C[C@@H]2NC(=O)[C@H](CC(=O)O)NC(=O)[C@H](Cc3ccc(OCC(=O)O)cc3)NC(=O)[C@H](Cc3ccco3)NC(=O)CSC[C@@H](C(=O)N[C@@H](CCN)C(=O)NCCCCCCCCCCC(=O)O)NC(=O)[C@H](CO)NC(=O)[C@H](C(C)(C)O)NC(=O)[C@H](CC3CCCCC3)NC(=O)[C@H](CCN)NC(=O)[C@@H](CC(C)C)NC(=O)[C@H](CCCN)NC(=O)[C@H](Cc3ccc(O)cc3)NC(=O)[C@H](Cc3ccc(-c4ccccc4)cc3)NC(=O)[C@H](Cc3ccc(C(N)=O)cc3)NC2=O)c1 [Compound 3719] ({CH2CO}-[Ala(2-furyl)]Y(Carboxymethyl)D[Phe(3-Me)][Phe(4-CONH2)][Bip]Y[Orn][dL][Dab][Cha][Val(3-OH)]SC[Dab][Aun]-OH; thioether N-14)	0.0298 µM
Cc1cccc(C[C@@H]2NC(=O)[C@H](CC(=O)O)NC(=O)[C@H](Cc3ccc(OCC(=O)O)cc3)NC(=O)[C@H](C(C)O)NC(=O)CSC[C@@H](C(=O)N[C@@H](CCN)C(=O)NCCCCCCCCCCC(=O)O)NC(=O)[C@H](CO)NC(=O)[C@H](C(C)(C)O)NC(=O)[C@H](CC3CCCCC3)NC(=O)[C@H](Cc3cnc[nH]3)NC(=O)[C@@H](CC(C)C)NC(=O)[C@H](CCCN)NC(=O)[C@H](Cc3ccc(OCC(=O)O)cc3)NC(=O)[C@H](Cc3ccc(-c4ccccc4)cc3)NC(=O)[C@H](Cc3ccc(OCC(=O)O)cc3)NC2=O)c1 (stereo partly drawn) [Compound 3720] ({CH2CO}-[Thr(3ξ)]Y(Carboxymethyl)D[Phe(3-Me)]Y(Carboxymethyl)[Bip]Y(Carboxymethyl)[Orn][dL]H[Cha][Val(3-OH)]SC[Dab][Aun]-OH; thioether N-14)	0.0117 µM
Cc1cccc(C[C@@H]2NC(=O)[C@H](CC(=O)O)NC(=O)[C@H](Cc3ccc(OCC(=O)O)cc3)NC(=O)[C@H](Cc3ccncc3)NC(=O)CSC[C@@H](C(=O)N[C@@H](CCN)C(=O)NCCCCCCCCCCC(=O)O)NC(=O)[C@H](CO)NC(=O)[C@H](C(C)(C)O)NC(=O)[C@H](CC3CCCCC3)NC(=O)[C@H](Cc3cnc[nH]3)NC(=O)[C@@H](CC(C)C)NC(=O)[C@H](CCCN)NC(=O)[C@H](Cc3ccc(OCC(=O)O)cc3)NC(=O)[C@H](Cc3ccc(-c4ccccc4)cc3)NC(=O)[C@H](Cc3ccc(OCC(=O)O)cc3)NC2=O)c1 [Compound 3721] ({CH2CO}-[4Pal]Y(Carboxymethyl)D[Phe(3-Me)]Y(Carboxymethyl)[Bip]Y(Carboxymethyl)[Orn][dL]H[Cha][Val(3-OH)]SC[Dab][Aun]-OH; thioether N-14)	0.0184 µM
Cc1cccc(C[C@@H]2NC(=O)[C@H](CC(=O)O)NC(=O)[C@H](Cc3ccc(OCC(=O)O)cc3)NC(=O)[C@H](Cc3ccncc3)NC(=O)CSC[C@@H](C(=O)N[C@@H](CO)C(=O)NCCCCCCCCCCC(=O)O)NC(=O)[C@H](CO)NC(=O)[C@H](C(C)(C)O)NC(=O)[C@H](CC3CCCCC3)NC(=O)[C@H](Cc3cnc[nH]3)NC(=O)[C@@H](CC(C)C)NC(=O)[C@H](CCCN)NC(=O)[C@H](Cc3ccc(OCC(=O)O)cc3)NC(=O)[C@H](Cc3ccc(-c4ccccc4)cc3)NC(=O)[C@H](Cc3ccc(OCC(=O)O)cc3)NC2=O)c1 [Compound 3722] ({CH2CO}-[4Pal]Y(Carboxymethyl)D[Phe(3-Me)]Y(Carboxymethyl)[Bip]Y(Carboxymethyl)[Orn][dL]H[Cha][Val(3-OH)]SCS[Aun]-OH; thioether N-14)	0.0412 µM
Cc1cccc(C[C@@H]2NC(=O)[C@H](CC(=O)O)NC(=O)[C@H](Cc3ccc(OCC(=O)O)cc3)NC(=O)[C@H](C(C)O)NC(=O)CSC[C@@H](C(=O)N[C@@H](CO)C(=O)NCCCCCCCCCCC(=O)O)NC(=O)[C@H](CO)NC(=O)[C@H](C(C)(C)O)NC(=O)[C@H](CC3CCCCC3)NC(=O)[C@H](Cc3cnc[nH]3)NC(=O)[C@@H](CC(C)C)NC(=O)[C@H](CCCN)NC(=O)[C@H](Cc3ccc(OCC(=O)O)cc3)NC(=O)[C@H](Cc3ccc(-c4ccccc4)cc3)NC(=O)[C@H](Cc3ccc(OCC(=O)O)cc3)NC2=O)c1 (stereo partly drawn) [Compound 3723] ({CH2CO}-[Thr(3ξ)]Y(Carboxymethyl)D[Phe(3-Me)]Y(Carboxymethyl)[Bip]Y(Carboxymethyl)[Orn][dL]H[Cha][Val(3-OH)]SCS[Aun]-OH; thioether N-14)	0.0841 µM
Cc1cccc(C[C@@H]2NC(=O)[C@H](CC(=O)O)NC(=O)[C@H](Cc3ccc(OCC(=O)O)cc3)NC(=O)[C@H](CCN)NC(=O)CSC[C@@H](C(=O)N[C@@H](CO)C(=O)NCCCCCCCCCCC(=O)O)NC(=O)[C@H](CO)NC(=O)[C@H](C(C)(C)O)NC(=O)[C@H](CC3CCCCC3)NC(=O)[C@H](Cc3cnc[nH]3)NC(=O)[C@@H](CC(C)C)NC(=O)[C@H](CCCN)NC(=O)[C@H](Cc3ccc(OCC(=O)O)cc3)NC(=O)[C@H](Cc3ccc(-c4ccccc4)cc3)NC(=O)[C@H](Cc3ccc(OCC(=O)O)cc3)NC2=O)c1 [Compound 3724] ({CH2CO}-[Dab]Y(Carboxymethyl)D[Phe(3-Me)]Y(Carboxymethyl)[Bip]Y(Carboxymethyl)[Orn][dL]H[Cha][Val(3-OH)]SCS[Aun]-OH; thioether N-14)	0.0739 µM
Cc1cccc(C[C@@H]2NC(=O)[C@H](CC(=O)O)NC(=O)[C@H](Cc3ccc(OCC(=O)O)cc3)NC(=O)[C@H](CCN)NC(=O)CSC[C@@H](C(=O)N[C@@H](CO)C(=O)NCCCCCCCCCCC(=O)O)NC(=O)[C@H](C(C)O)NC(=O)[C@H](C(C)(C)O)NC(=O)[C@H](CC3CCCCC3)NC(=O)[C@H](CCN)NC(=O)[C@@H](CC(C)C)NC(=O)[C@H](CCCN)NC(=O)[C@H](Cc3ccc(O)cc3)NC(=O)[C@H](Cc3ccc(-c4ccccc4)cc3)NC(=O)[C@H](Cc3ccc(C(N)=O)cc3)NC2=O)c1 (stereo partly drawn) [Compound 3725] ({CH2CO}-[Dab]Y(Carboxymethyl)D[Phe(3-Me)][Phe(4-CONH2)][Bip]Y[Orn][dL][Dab][Cha][Val(3-OH)][Thr(3ξ)]CS[Aun]-OH; thioether N-14)	0.0305 µM
Cc1cccc(C[C@@H]2NC(=O)[C@H](CC(=O)O)NC(=O)[C@H](Cc3ccc(OCC(=O)O)cc3)NC(=O)[C@H](Cc3ccncc3)NC(=O)CSC[C@@H](C(=O)N[C@@H](CO)C(=O)NCCCCCCCCCCC(=O)O)NC(=O)[C@H](C(C)O)NC(=O)[C@H](C(C)(C)O)NC(=O)[C@H](CC3CCCCC3)NC(=O)[C@H](CCN)NC(=O)[C@@H](CC(C)C)NC(=O)[C@H](CCCN)NC(=O)[C@H](Cc3ccc(O)cc3)NC(=O)[C@H](Cc3ccc(-c4ccccc4)cc3)NC(=O)[C@H](Cc3ccc(C(N)=O)cc3)NC2=O)c1 (stereo partly drawn) [Compound 3726] ({CH2CO}-[4Pal]Y(Carboxymethyl)D[Phe(3-Me)][Phe(4-CONH2)][Bip]Y[Orn][dL][Dab][Cha][Val(3-OH)][Thr(3ξ)]CS[Aun]-OH; thioether N-14)	0.0131 µM
Cc1cccc(C[C@@H]2NC(=O)[C@H](CC(=O)O)NC(=O)[C@H](Cc3ccc(OCC(=O)O)cc3)NC(=O)[C@H](CCN)NC(=O)CSC[C@@H](C(=O)NCCOCCOCC(=O)NCCCCCCCCCCC(=O)O)NC(=O)[C@H](C(C)O)NC(=O)[C@H](C(C)(C)O)NC(=O)[C@H](CC3CCCCC3)NC(=O)[C@H](CCN)NC(=O)[C@@H](CC(C)C)NC(=O)[C@H](CCCN)NC(=O)[C@H](Cc3ccc(O)cc3)NC(=O)[C@H](Cc3ccc(-c4ccccc4)cc3)NC(=O)[C@H](Cc3ccc(C(N)=O)cc3)NC2=O)c1 (stereo partly drawn) [Compound 3727] ({CH2CO}-[Dab]Y(Carboxymethyl)D[Phe(3-Me)][Phe(4-CONH2)][Bip]Y[Orn][dL][Dab][Cha][Val(3-OH)][Thr(3ξ)]C[AEEA][Aun]-OH; thioether N-14)	0.0504 µM
Cc1cccc(C[C@@H]2NC(=O)[C@H](CC(=O)O)NC(=O)[C@H](Cc3ccc(OCC(=O)O)cc3)NC(=O)[C@H](Cc3ccncc3)NC(=O)CSC[C@@H](C(=O)N[C@@H](CCN)C(=O)NCCCCCCCCCCC(=O)O)NC(=O)[C@H](C(C)O)NC(=O)[C@H](C(C)(C)O)NC(=O)[C@H](CC3CCCCC3)NC(=O)[C@H](Cc3cnc[nH]3)NC(=O)[C@@H](CC(C)C)NC(=O)[C@H](CCCN)NC(=O)[C@H](Cc3ccc(O)cc3)NC(=O)[C@H](Cc3ccc(-c4ccccc4)cc3)NC(=O)[C@H](Cc3ccc(C(N)=O)cc3)NC2=O)c1 (stereo partly drawn) [Compound 3728] ({CH2CO}-[4Pal]Y(Carboxymethyl)D[Phe(3-Me)][Phe(4-CONH2)][Bip]Y[Orn][dL]H[Cha][Val(3-OH)][Thr(3ξ)]C[Dab][Aun]-OH; thioether N-14)	0.0256 µM
